Values of other authors in patent US20250231185A1, “Coronavirus T Cell Epitopes, Megapools and Uses Thereof” (La Jolla Institute for Immunology, priority 2021, published 2025).

Test system: CD8+ T cells
Conditions: CD8R (D) megapool epitopes; dominant = recognized by 3 or more donors/different studies; cited from earlier work

| Substance | Dominant |
| --- | --- |
| 1764 (TTDPSFLGRY) [compound 1764] | Yes (more dominant epitopes are defined by being recognized by 3 or more donors/different studies) |
| 1743 (AIMTRCLAV) [compound 1743] | Yes (more dominant epitopes are defined by being recognized by 3 or more donors/different studies) |
| 1801 (FVRATATIPI) [compound 1801] | Yes (more dominant epitopes are defined by being recognized by 3 or more donors/different studies) |
| 1788 (SMWALIISV) [compound 1788] | Yes (more dominant epitopes are defined by being recognized by 3 or more donors/different studies) |
| 1720 (RQLLFVVEV) [compound 1720] | Yes (more dominant epitopes are defined by being recognized by 3 or more donors/different studies) |
| 1769 (ILFTRFFYV) [compound 1769] | Yes (more dominant epitopes are defined by being recognized by 3 or more donors/different studies) |
| 1782 (VLAWLYAAV) [compound 1782] | Yes (more dominant epitopes are defined by being recognized by 3 or more donors/different studies) |
| 1798 (YTELEPPCRF) [compound 1798] | Yes (more dominant epitopes are defined by being recognized by 3 or more donors/different studies) |
| 1737 (SSNVANYQK) [compound 1737] | Yes (more dominant epitopes are defined by being recognized by 3 or more donors/different studies) |
| 1678 (ATSRTLSYY) [compound 1678] | Yes (more dominant epitopes are defined by being recognized by 3 or more donors/different studies) |
| 1768 (ASMPTTIAK) [compound 1768] | Yes (more dominant epitopes are defined by being recognized by 3 or more donors/different studies) |
| 1777 (TSEDMLNPNY) [compound 1777] | Yes (more dominant epitopes are defined by being recognized by 3 or more donors/different studies) |
| 1671 (NRFLYIIKL) [compound 1671] | Yes (more dominant epitopes are defined by being recognized by 3 or more donors/different studies) |
| 1668 (GTITVEELK) [compound 1668] | Yes (more dominant epitopes are defined by being recognized by 3 or more donors/different studies) |
| 1736 (KLNVGDYFV) [compound 1736] | Yes (more dominant epitopes are defined by being recognized by 3 or more donors/different studies) |

Same assay, conditions: CD8RE megapool peptides (non-spike SARS-CoV-2 antigens); dominant epitope Yes/No; cited from earlier work

| Substance | Dominant |
| --- | --- |
| 3009 (FSAVGNICY) [compound 3009] | Yes (more dominant epitopes are defined by being recognized by 3 or more donors/different studies) |
| 2941 (ILLNKHIDA) [compound 2941] | Yes (more dominant epitopes are defined by being recognized by 3 or more donors/different studies) |
| 2930 (LLLLDRLNQL) [compound 2930] | Yes (more dominant epitopes are defined by being recognized by 3 or more donors/different studies) |
| 2960 (FYAYLRKHF) [compound 2960] | Yes (more dominant epitopes are defined by being recognized by 3 or more donors/different studies) |
| 2924 (SPRWYFYYL) [compound 2924] | Yes (more dominant epitopes are defined by being recognized by 3 or more donors/different studies) |
| 3023 (SMWALIISV) [compound 3023] | Yes (more dominant epitopes are defined by being recognized by 3 or more donors/different studies) |
| 2977 (TYACWHHSI) [compound 2977] | Yes (more dominant epitopes are defined by being recognized by 3 or more donors/different studies) |
| 2993 (KTIQPRVEK) [compound 2993] | Yes (more dominant epitopes are defined by being recognized by 3 or more donors/different studies) |
| 3050 (IMLIIFWFSL) [compound 3050] | Yes (more dominant epitopes are defined by being recognized by 3 or more donors/different studies) |
| 2913 (ATSRTLSYY) [compound 2913] | Yes (more dominant epitopes are defined by being recognized by 3 or more donors/different studies) |
| 2953 (FVDGVPFVV) [compound 2953] | Yes (more dominant epitopes are defined by being recognized by 3 or more donors/different studies) |

Same assay, conditions: Rha et al.; 37 of 112 and 2 of 40 patients; cited from earlier work

| Substance | responses detected in patients [%] |
| --- | --- |
| FIAGLIAIV [SEQ ID NO: 1520] | 5 |

Same assay, conditions: SARS-CoV-2-derived CD8 epitopes; dominant = recognized by 3 or more donors/different studies; cited from earlier work

| Substance | Dominant |
| --- | --- |
| 632 (QEILGTVSW) [compound 632] | Yes (more dominant epitopes are defined by being recognized by 3 or more donors/different studies) |
| 519 (LLLLDRLNQL) [compound 519] | Yes (more dominant epitopes are defined by being recognized by 3 or more donors/different studies) |

Same assay, conditions: SARS-CoV-2 Ag S; T cell type recognizing the epitope; cited from earlier work

| Substance | Restriction |
| --- | --- |
| 1349 (RSVASQSII) [compound 1349] | CD8 |
| 1348 (SPRRARSV) [compound 1348] | CD8 |
| 1450 (NASVVNIQK) [compound 1450] | CD8 |
| 1414 (RLQSLQTY) [compound 1414] | CD8 |
| 1434 (VTYVPAQEK) [compound 1434] | CD8 |
| 1383 (GLTVLPPLL) [compound 1383] | CD8 |
| 1305 (YNYLYRLFR) [compound 1305] | CD8 |
| 1445 (IITTDNTFV) [compound 1445] | CD8 |
| 1457 (QELGKYEQY) [compound 1457] | CD8 |
| 1311 (FERDISTEI) [compound 1311] | CD8 |
| 1397 (YENQKLIANQF) [compound 1397] | CD8 |

Same assay, conditions: T cell subset (CD4 or CD8) recognizing the SARS-CoV-2-derived epitope; cited from earlier work

| Substance | Restriction |
| --- | --- |
| 652 (NINLHTQVV) [compound 652] | CD8 |
| 649 (ITFDNLKTL) [compound 649] | CD8 |
| 621 (ESKPSVEQR) [compound 621] | CD8 |
| 632 (QEILGTVSW) [compound 632] | CD8 |
| 548 (LLNKHIDAY) [compound 548] | CD8 |
| 646 (TSNPTTFHL) [compound 646] | CD8 |
| 519 (LLLLDRLNQL) [compound 519] | CD8 |
| 667 (SALNHTKKW) [compound 667] | CD8 |
| 630 (TTYPGQGLNGY) [compound 630] | CD8 |
| 636 (AIVSTIQRKYK) [compound 636] | CD8 |
| 699 (VVAIDYKHY) [compound 699] | CD8 |
| 507 (YGANKDGIIW) [compound 507] | CD8 |
| 565 (TFNGECPNF) [compound 565] | CD8 |
| 625 (LTAVVIPTK) [compound 625] | CD8 |
| 543 (EVTPSGTWLTY) [compound 543] | CD8 |
| 569 (EEIAIILASF) [compound 569] | CD8 |
| 592 (SELLTPLGI) [compound 592] | CD8 |
| 607 (YLKLTDNVYIK) [compound 607] | CD8 |

Same assay, conditions: T cell type (CD4 or CD8) recognizing the SARS-CoV-2 epitope; cited from earlier work

| Substance | Restriction |
| --- | --- |
| 974 (TITQMNLKY) [compound 974] | CD8 |
| 979 (ATVVIGTSK) [compound 979] | CD8 |
| 1074 (TICAPLTVF) [compound 1074] | CD8 |
| 1066 (AGFSLWVYK) [compound 1066] | CD8 |
| 990 (TSSGDATTAY) [compound 990] | CD8 |
| 1007 (LPYPDPSRIL) [compound 1007] | CD8 |
| 1083 (SVVSKVVKV) [compound 1083] | CD8 |
| 1077 (VVQQLPETY) [compound 1077] | CD8 |
| 1058 (LLADKFPVL) [compound 1058] | CD8 |
| 1032 (VPQEHYVRI) [compound 1032] | CD8 |
| 1049 (LQLGFSTGV) [compound 1049] | CD8 |
